Measured values taken from patent US20190330192A1, “SUBSTITUTED AZOLYLPYRROLONES AND AZOLYLHYDANTOINS AND SALTS THEREOF AND USE THEREOF AS HERBICIDAL ACTIVE SUBSTANCES” (Bayer CropScience Aktiengesellschaft, priority 2016, published 2019).

Target: T1, photosystem II (PS II) (Spinacia oleracea, UniProt P69560)
T1 construct: the chloroplasts were osmotically ruptured and the thylakoid membranes were then obtained by centrifugation; from tissue; host or cells: fresh spinach leaves; thylakoid membranes from isolated chloroplasts
Assay: Measurement of the PS II activity in thylakoid membranes (DCPIP reduction)
Assay type: biochemical
Settings: test compound at 100 μM; spinach thylakoid membranes; DCPIP absorption at 595 nm over 10 min at 22° C. with exposure to light; read-out: Effect (inhibition of PS II activity)
Experimental: Cooled fresh spinach leaves were comminuted and homogenized in 50 mM phosphate buffer, pH 6.8. 10 mM KCl, 0.34 M sucrose (sucrose buffer) (blender, 1 g of plant material/ml). The homogenate was subsequently filtered through 4 layers of Miracloth and the chloroplasts were isolated by centrifugation, i.e. 10 min of centrifugation at 4400×g (4° C.). The sediment was suspended in 25 ml of sucrose buffer and re-centrifuged for 10 min at 4400×g (4° C.). The sediment was then suspended in 40 ml of 50 mM phosphate buffer, pH 6.8, 10 mM KCl, without sucrose. In this step, the chloroplasts were osmotically ruptured and the thylakoid membranes were then obtained by centrifugation (10 min, 4400×g, 4° C.). The membrane sediment was finally suspended in 20 ml of 50 mM phosphate buffer, pH 6.8, 10 mM KCl. […]
The electron transfer from PS II to an artificial electron acceptor, 2,6-dichlorophenolindophenol (DCPIP), was measured with exposure to light. The concentration of the blue oxidized form of DCPIP was determined spectrophotometrically at wavelength λ=595 nm. […]
Depending on the activity of the PS II preparation, the dilution was adjusted such that the measurement of the decrease in absorption (λ=595 nm) was linear for at least 10 min. […] On each microtiter plate, a known PS II inhibitor, for example metribuzin, was used as standard, which allowed the quality of the PS II test to be assessed. […]

Row | Compound | inhibition at 100 µM (stock) [%] | inhibition at 100 µM [%]
1 | CCC(=O)OC1C(C)=C(Cl)C(=O)N1c1nc(SC)n(C)n1 (centres unmarked) [1.74-185, 4-Chloro-3-methyl-1-[1-methyl-5-(methylsulfanyl)-1H-1,2,4-triazol-3-yl]-5-oxo-2,5-dihydro-1H-pyrrol-2-ylpropionate] | 30 to 50 | –
2 | CC1=C(Cl)C(=O)N(c2nnn(C)n2)C1O (centres unmarked) [1.82-2, 3-Chloro-5-hydroxy-4-methyl-1-(1-methyl-1H-1,2,4,5-tetrazol-3-yl)-1,5-dihydro-2H-pyrrol-2-one] | – | 50 to 70
